The text below walks through data of patent US11117900B2 (Vertex Pharmaceuticals Incorporated, priority 2012, dated 2021).

The assay concerns HCT116 colorectal cancer cells. The assay is described as follows: Cisplatin sensitization assay (96 h MTS cell viability).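 Further: compound concentration needed to lower the IC50 of Cisplatin alone by a set fold.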 The format is cell-based. As to conditions: Cisplatin sensitization value. The essentials: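 The MTS viability read, after 1 h with reagent, followed 96 h of co-treatment at 37° C. in 5% CO2. Both compound and cisplatin were titrated 2-fold from a 10 μM top final concentration in a complete concentration matrix on HCT116 cells. Scores +++/++/+ reflect cisplatin sensitization value ranges.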
Take `Nc1nn2cc(F)cnc2c1C(=O)Nc1cncc(F)c1N1CCC(C(=O)N2CCN(C3CCC3)CC2)CC1` [I-G-35, 2-amino-N-(4-(4-(4-cyclobutylpiperazine-1-carbonyl)piperidin-1-yl)-5-fluoropyridin-3-yl)-6-fluoropyrazolo[1,5-a]pyrimidine-3-carboxamide]: the “Cisplatin Sensitization Assay” value is reported as “+++ (Compounds with a Cisplatin sensitization value of <0.02 μM are marked with “+++.”)”.

As for `CN(C)C(=O)C1CN(c2ccncc2NC(=O)c2c(N)nn3cc(F)cnc23)CCO1` (stereo not shown) [I-N-234, 4-(3-(2-amino-6-fluoropyrazolo[1,5-a]pyrimidine-3-carboxamido)pyridin-4-yl)-N,N-dimethylmorpholine-2-carboxamide], the “Cisplatin Sensitization Assay” value is recorded as “+ (Compounds with a Cisplatin sensitization value >0.2 μM but <5 μM are marked with “+.”)”.

For the molecule `Cc1nn(C)cc1-c1ccncc1NC(=O)c1c(N)nn2cc(F)cnc12` [I-C-63, 2-amino-N-(4-(1,3-dimethyl-1H-pyrazol-4-yl)pyridin-3-yl)-6-fluoropyrazolo[1,5-a]pyrimidine-3-carboxamide], the “Cisplatin Sensitization Assay” value is recorded as “+++ (Compounds with a Cisplatin sensitization value of <0.02 μM are marked with “+++.”)”.

Turning to `NCC1CCN(c2ccncc2NC(=O)c2c(N)nn3cc(Cl)cnc23)CC1` [I-N-91, 2-amino-N-(4-(4-(aminomethyl)piperidin-1-yl)pyridin-3-yl)-6-chloropyrazolo[1,5-a]pyrimidine-3-carboxamide], the “Cisplatin Sensitization Assay” value is on record as “++ (Compounds with a Cisplatin sensitization value >0.02 μM but <0.2 μM are marked with “++.”)”.

In the case of `COCCN1CCC[C@H](Oc2ccncc2NC(=O)c2c(N)nn3cc(Cl)cnc23)C1` [I-O-67, (S)-2-amino-6-chloro-N-(4-((1-(2-methoxyethy)piperidin-3-yl)oxy)pyridin-3-yl)pyrazolo[1,5-a]pyrimidine-3-carboxamide], the “Cisplatin Sensitization Assay” value is given as “++ (Compounds with a Cisplatin sensitization value >0.02 μM but <0.2 μM are marked with “++.”)”.

As to `Cc1ncn(C)c1-c1ccncc1NC(=O)c1c(N)nn2cc(F)cnc12` [I-C-78, 2-amino-N-(4-(1,4-dimethyl-1H-imidazol-5-yl)pyridin-3-yl)-6-fluoropyrazolo[1,5-a]pyrimidine-3-carboxamide], the “Cisplatin Sensitization Assay” value is “++ (Compounds with a Cisplatin sensitization value >0.02 μM but <0.2 μM are marked with “++.”)”.

Take `Nc1nn2cc(F)cnc2c1C(=O)Nc1cncc(F)c1N1CCC(C(=O)N2CC3CCC(C2)N3)CC1` [I-G-44, N-(4-(4-(3,8-diazabicyclo[3.2.1]octane-3-carbonyl)piperidin-1-yl)-5-fluoropyridin-3-yl)-2-amino-6-fluoropyrazolo[1,5-a]pyrimidine-3-carboxamide]: the “Cisplatin Sensitization Assay” value is given as “+++ (Compounds with a Cisplatin sensitization value of <0.02 μM are marked with “+++.”)”.

`CS(=O)(=O)N1CCN(c2ccncc2NC(=O)c2c(N)nn3cc(F)cnc23)CC1` [I-N-178, 2-amino-6-fluoro-N-(4-(4-(methylsulfonyl)piperazin-1-yl)pyridin-3-yl)pyrazolo[1,5-a]pyrimidine-3-carboxamide]: the “Cisplatin Sensitization Assay” value is “+++ (Compounds with a Cisplatin sensitization value of <0.02 μM are marked with “+++.”)”.

Consider `CN(C)[C@H]1CCN(c2ccncc2NC(=O)c2c(N)nn3cc(Cl)cnc23)C[C@@H]1O` [I-N-35, 2-amino-6-chloro-N-(4-((3S,4S)-4-(dimethylamino)-3-hydroxypiperidin-1-yl)pyridin-3-yl)pyrazolo[1,5-a]pyrimidine-3-carboxamide], for which the “Cisplatin Sensitization Assay” value is “+ (Compounds with a Cisplatin sensitization value >0.2 μM but <5 μM are marked with “+.”)”.

For the molecule `Nc1nn2cc(F)cnc2c1C(=O)Nc1cncc(F)c1N1CCN(C2CCOC2)CC1` (stereo not shown) [I-N-122, 2-amino-6-fluoro-N-(5-fluoro-4-(4-(tetrahydrofuran-3-yl)piperazin-1-yl)pyridin-3-yl)pyrazolo[1,5-a]pyrimidine-3-carboxamide], the “Cisplatin Sensitization Assay” value is on record as “++ (Compounds with a Cisplatin sensitization value >0.02 μM but <0.2 μM are marked with “++.”)”.

As to `CC1(N2CCN(C(=O)C3CCN(c4c(F)cncc4NC(=O)c4c(N)nn5cc(F)cnc45)CC3)CC2)COC1` [I-G-92, 2-amino-6-fluoro-N-(5-fluoro-4-(4-(4-(3-methyloxetan-3-yl)piperazine-1-carbonyl)piperidin-1-yl)pyridin-3-yl)pyrazolo[1,5-a]pyrimidine-3-carboxamide], the “Cisplatin Sensitization Assay” value is listed as “+++ (Compounds with a Cisplatin sensitization value of <0.02 μM are marked with “+++.”)”.

For `Nc1nn2cc(F)cnc2c1C(=O)Nc1cnccc1OC1CCOC1` (racemic) [I-O-15, (R,S)-2-amino-6-fluoro-N-(4-((tetrahydrofuran-3-yl)oxy)pyridin-3-yl)pyrazolo[1,5-a]pyrimidine-3-carboxamide], the “Cisplatin Sensitization Assay” value is on record as “+++ (Compounds with a Cisplatin sensitization value of <0.02 μM are marked with “+++.”)”.

Regarding `COC1CCN(C2CCN(c3ccncc3NC(=O)c3c(N)nn4cc(Cl)cnc34)CC2)C1` (stereo not shown) [I-N-95, 2-amino-6-chloro-N-(4-(4-(3-methoxypyrrolidin-1-yl)piperidin-1-yl)pyridin-3-yl)pyrazolo[1,5-a]pyrimidine-3-carboxamide], the “Cisplatin Sensitization Assay” value is reported as “++ (Compounds with a Cisplatin sensitization value >0.02 μM but <0.2 μM are marked with “++.”)”.

Take `CN1CCOC(C(=O)N2CCN(c3c(F)cncc3NC(=O)c3c(N)nn4cc(F)cnc34)CC2)C1` (stereo not shown) [I-N-174, 2-amino-6-fluoro-N-(5-fluoro-4-(4-(4-methylmorpholine-2-carbonyl)piperazin-1-yl)pyridin-3-yl)pyrazolo[1,5-a]pyrimidine-3-carboxamide]: the “Cisplatin Sensitization Assay” value is listed as “+++ (Compounds with a Cisplatin sensitization value of <0.02 μM are marked with “+++.”)”.

Take `Nc1nn2cc(F)cnc2c1C(=O)Nc1cnccc1N1CCN(S(=O)(=O)C2CC2)CC1` [I-N-176, 2-amino-N-(4-(4-(cyclopropylsulfonyl)piperazin-1-yl)pyridin-3-yl)-6-fluoropyrazolo[1,5-a]pyrimidine-3-carboxamide]: the “Cisplatin Sensitization Assay” value is on record as “+++ (Compounds with a Cisplatin sensitization value of <0.02 μM are marked with “+++.”)”.

Take `Cc1ncc(-c2ccncc2NC(=O)c2c(N)nn3cc(F)cnc23)n1C` [I-C-77, 2-amino-N-(4-(1,2-dimethyl-1H-imidazol-5-yl)pyridin-3-yl)-6-fluoropyrazolo[1,5-a]pyrimidine-3-carboxamide]: the “Cisplatin Sensitization Assay” value is “+++ (Compounds with a Cisplatin sensitization value of <0.02 μM are marked with “+++.”)”.

With `Nc1nn2cc(F)cnc2c1C(=O)Nc1cnccc1N1CCC(c2nnco2)CC1` [I-N-268, N-(4-(4-(1,3,4-oxadiazol-2-yl)piperidin-1-yl)pyridin-3-yl)-2-amino-6-fluoropyrazolo[1,5-a]pyrimidine-3-carboxamide], the “Cisplatin Sensitization Assay” value is on record as “+++ (Compounds with a Cisplatin sensitization value of <0.02 μM are marked with “+++.”)”.

With `CC(C#N)c1cnc2c(C(=O)Nc3cnccc3N3CCN(C4COC4)CC3)c(N)nn2c1` (stereo not shown) [I-N-143, 2-amino-6-(1-cyanoethyl)-N-(4-(4-(oxetan-3-yl)piperazin-1-yl)pyridin-3-yl)pyrazolo[1,5-a]pyrimidine-3-carboxamide], the “Cisplatin Sensitization Assay” value is given as “++ (Compounds with a Cisplatin sensitization value >0.02 μM but <0.2 μM are marked with “++.”)”.

Turning to `CN1CC2(CCN(c3ccncc3NC(=O)c3c(N)nn4cc(F)cnc34)CC2)OC1=O` [I-N-216, 2-amino-6-fluoro-N-(4-(3-methyl-2-oxo-1-oxa-3,8-diazaspiro[4.5]decan-8-yl)pyridin-3-yl)pyrazolo[1,5-a]pyrimidine-3-carboxamide], the “Cisplatin Sensitization Assay” value was “+++ (Compounds with a Cisplatin sensitization value of <0.02 μM are marked with “+++.”)”.

Consider `CN1CCN(C(=O)C2CCN(c3c(F)cncc3NC(=O)c3c(N)nn4cc(F)cnc34)CC2)CC1(C)C` [I-G-15, 2-amino-6-fluoro-N-(5-fluoro-4-(4-(3,3,4-trimethylpiperazine-1-carbonyl)piperidin-1-yl)pyridin-3-yl)pyrazolo[1,5-a]pyrimidine-3-carboxamide], for which the “Cisplatin Sensitization Assay” value is given as “+++ (Compounds with a Cisplatin sensitization value of <0.02 μM are marked with “+++.”)”.

On to `Nc1nn2cc(F)cnc2c1C(=O)Nc1cncc(F)c1N1CCC(C(=O)N2CCN(C3CC3)CC2)CC1` [I-G-13, 2-amino-N-(4-(4-(4-cyclopropylpiperazine-1-carbonyl)piperidin-1-yl)-5-fluoropyridin-3-yl)-6-fluoropyrazolo[1,5-a]pyrimidine-3-carboxamide], for which the “Cisplatin Sensitization Assay” value is listed as “+++ (Compounds with a Cisplatin sensitization value of <0.02 μM are marked with “+++.”)”.

For the molecule `CC(C)(O)CN1CCN(c2c(F)cncc2NC(=O)c2c(N)nn3cc(F)cnc23)CC1` [I-N-139, 2-amino-6-fluoro-N-(5-fluoro-4-(4-(2-hydroxy-2-methylpropyl)piperazin-1-yl)pyridin-3-yl)pyrazolo[1,5-a]pyrimidine-3-carboxamide], the “Cisplatin Sensitization Assay” value is reported as “+++ (Compounds with a Cisplatin sensitization value of <0.02 μM are marked with “+++.”)”.

With `Cc1ncn(-c2ccncc2NC(=O)c2c(N)nn3cc(F)cnc23)n1` [I-N-161, 2-amino-6-fluoro-N-(4-(3-methyl-1H-1,2,4-triazol-1-yl)pyridin-3-yl)pyrazolo[1,5-a]pyrimidine-3-carboxamide], the “Cisplatin Sensitization Assay” value was “+ (Compounds with a Cisplatin sensitization value >0.2 μM but <5 μM are marked with “+.”)”.

With `Nc1nn2cc(F)cnc2c1C(=O)Nc1cncc(F)c1N1CCC(S(=O)(=O)N2CCN3CCC2CC3)CC1` [I-N-273, N-(4-(4-(1,4-diazabicyclo[3.2.2]nonan-4-ylsulfonyl)piperidin-1-yl)-5-fluoropyridin-3-yl)-2-amino-6-fluoropyrazolo[1,5-a]pyrimidine-3-carboxamide], the “Cisplatin Sensitization Assay” value is listed as “+++ (Compounds with a Cisplatin sensitization value of <0.02 μM are marked with “+++.”)”.

For the molecule `CC(=O)N1CC2(CCN(c3ccncc3NC(=O)c3c(N)nn4cc(F)cnc34)CC2)C1` [I-N-251, N-(4-(2-acetyl-2,7-diazaspiro[3.5]nonan-7-yl)pyridin-3-yl)-2-amino-6-fluoropyrazolo[1,5-a]pyrimidine-3-carboxamide], the “Cisplatin Sensitization Assay” value is “+++ (Compounds with a Cisplatin sensitization value of <0.02 μM are marked with “+++.”)”.
